{"source": "patent US9320760B2", "about": "“Compositions and methods of use of compounds to increase cancer patient survival time” (BioNumerik Pharmaceuticals, Inc., priority 2008, dated 2016)", "key": {"[1]": {"system": "human cancer cell lines", "test": "interference with paclitaxel and platinum induced cytotoxicity", "format": "cell-based", "from_the_text": "An important element of Tavocept's™ effectiveness as a compound in the treatment of cancer is its selectivity for normal cells versus cancer cells and its inability to interfere with the anti-cancer activity of chemotherapeutic agents."}, "[2]": {"target": "T1, GST (m1-1 isotype of GST) (Homo sapiens, UniProt P09488)", "T1 construct": "purchased", "T1 sequence (P09488 1-218)": "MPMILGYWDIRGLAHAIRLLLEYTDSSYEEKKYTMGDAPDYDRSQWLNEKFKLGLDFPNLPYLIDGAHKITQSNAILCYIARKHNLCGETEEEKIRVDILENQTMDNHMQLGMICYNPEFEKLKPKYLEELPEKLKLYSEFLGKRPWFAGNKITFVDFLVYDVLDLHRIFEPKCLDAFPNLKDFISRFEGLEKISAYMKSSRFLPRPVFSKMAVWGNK", "test": "GST assay: conjugation of reduced glutathione to 1-chloro-2,4-dinitrobenzene (CDNB), 340 nm", "format": "biochemical", "conditions": "for Slope Abs/min: individual assay run, 1 mM GSH, slope 8.9 to 13.1 min, 20° C.; for Slope Mean: mean of three runs (0 mM control 0.0449); for Relative Activity: normalized to reactions with no Tavocept", "experimental": "An in vitro assay for GST has been developed and reported. See, Meyer, D. J. and Ketterer, B., Purification of soluble human glutathione S-transferases. Methods Enzymol. 252:53-65 (1995). This assay monitors the conjugation of reduced glutathione to 1-chloro-2,4-dinitrobenzene (CDNB), as illustrated in Reaction Scheme II, below.\nReduced thiol forms a conjugate with CDNB (extinction coefficient=9600 M^−1 cm^−1), which is detected at 340 nm. […] A typical 1 mL assay was set up by mixing 500 μL NaHPO4 buffer (200 mM, pH 6.5), 20 μL GSH (50 mM), 20 μL CDNB (50 mM), and 458 μL sterile water. Reactions were incubated at 20° C. in the cuvette holder of the spectrophotometer for approximately 5 min. prior to initiating the assay with the addition of enzyme (m1-1 isotype of GST; activity >100 U/mg). The enzyme stock purchased from the vendor was diluted 1:100 in 200 mM NaHPO4 buffer (pH 6.5), and 2 μL of the diluted enzyme was added to initiate the reaction. The final amount of enzyme added to the assay was typically 0.002 U. Assays were run at 20° C. in 1 mL quartz cuvettes (Hellma Scientific). Slopes were measured in the linear range of the assay (i.e., typically between 5 to 10 min.). […] Final reaction volumes were fixed at 1 mL by adjusting the amount of water added.\nAll UV-visible assays were performed using a Varian Cary 100 spectrophotometer equipped with a thermostatic jacketed multi-cell holder. The default parameters of the Cary Win UV Enzyme Kinetics application (version 2.00) were used; with the exceptions of using both the visible and deuterium lamps, and setting the wavelength to 340 nm, the temperature to 20° C., and the maximal duration of the assay at 30 minutes.\nRaw data was obtained on a Cary 100 spectrophotometer. […] The first phase was a baseline corresponding to the time prior to addition of enzyme (typically 2-5 min. in duration). Assays in the first phase of the reaction contained only substrate, buffer and (in some assays) Tavocept™. The spectrophotometer was put in pause mode while enzyme (GST) was added and mixed into the assay reactions. No absorbance values were collected during the process of enzyme addition. The region of experimental interest was during the linear phase of the enzyme reaction, which immediately followed the addition of enzyme. The linear phase is of experimental interest because it is when the classical model of Michaelis-Menton kinetics holds true. During this phase the substrate concentration is high (>Km for enzyme) and, therefore, the rate of catalysis is independent of the substrate concentration. It was during this time that reaction rates (i.e., slopes of change in absorbance with time) were measured using the Cary 100 software. The duration of the linear phase was between 5-10 minutes, depending upon the specific reaction conditions. Reactions were considered complete when substrate concentration was no longer saturating and became a rate limiting factor of the assay. When the substrate was limiting, the reaction rate deviated from linearity. This end phase of the reaction was typically observed after 10 to 15 minutes. Absorbance and time values during the end phase of the reaction were not used in slope calculations because the reaction was effectively over at this point as the reaction no longer followed the classical Michaelis-Menton model for enzyme kinetics. Completion of the reaction on the Cary software could be detected visually by overlaying a straight line beginning at the addition of enzyme and extending past the end phase of the assay curve. Upon completion of a set of reactions data was stored as an electronic “batch” file. Sigma Plot was used specifically to show the mean of assays run in triplicate with linear regression lines and error bars illustrating standard deviation. Descriptive statistics (mean and standard deviation) were used to describe and summarize the results of the experiments. The results of these experiments are illustrated in FIG. 16. […]"}, "[3]": {"target": "T2, Thioredoxin Reductase (Bos taurus, UniProt O62768)", "T2 sequence (O62768 1-499)": "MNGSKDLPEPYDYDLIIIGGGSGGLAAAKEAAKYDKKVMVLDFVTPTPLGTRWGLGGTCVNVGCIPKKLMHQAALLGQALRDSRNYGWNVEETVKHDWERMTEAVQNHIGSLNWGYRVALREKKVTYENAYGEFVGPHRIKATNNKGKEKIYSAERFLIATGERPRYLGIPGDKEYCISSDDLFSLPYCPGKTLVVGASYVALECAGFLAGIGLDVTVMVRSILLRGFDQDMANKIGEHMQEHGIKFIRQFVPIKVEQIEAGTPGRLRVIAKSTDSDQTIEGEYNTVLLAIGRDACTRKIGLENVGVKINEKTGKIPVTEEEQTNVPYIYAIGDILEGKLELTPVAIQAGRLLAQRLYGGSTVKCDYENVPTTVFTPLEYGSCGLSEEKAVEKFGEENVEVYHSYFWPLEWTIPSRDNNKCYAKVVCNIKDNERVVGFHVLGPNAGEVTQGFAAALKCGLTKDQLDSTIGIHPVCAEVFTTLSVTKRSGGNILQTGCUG", "test": "NADPH oxidation at 340 nm, thioredoxin reductase only", "format": "biochemical, bovine", "experimental": "Biochemistry 21:6628-6633 (1982).\nData was then collected and plotted in Microsoft Excel. Error calculations, and graphical representations were performed in Microsoft Excel and Kaleidograph (ver. 3.5). Nonlinear data was graphically rendered using Kaleidograph. ANOVA and other statistical analyses were performed using SAS (ver. 8.2). Unless otherwise noted, significance level was set at 0.05, and error bars represent actual experimental standard deviation.\nIt should be noted that for the purposes of FIG. 17 only, thioredoxin is labeled TXR and thioredoxin reductase is labeled TRR."}}, "note": "Where “and” joins values, the source holds several entries; their conditions need not be identical. Equal values may be shown once. Entries after “also recorded” stand apart in the source; their conditions may differ.", "data": [{"smiles": "O=S(=O)([O-])CCSSCCS(=O)(=O)[O-].[Na+].[Na+]", "note": "[Tavocept™, disodium 2,2′-dithio-bis-ethane sulfonate]", "values": [{"measurement": "interference with paclitaxel and platinum induced cytotoxicity", "setting": "[1]", "result": "did not interfere"}, {"measurement": "Slope Abs/min", "setting": "[2]; Tavocept 1.1 mM", "result": "0.0437 Abs/min and 0.0407 Abs/min and 0.0427 Abs/min"}, {"measurement": "Slope Mean", "setting": "[2]; Tavocept 1.1 mM", "result": 0.0424, "unit": "Abs/min"}, {"measurement": "Relative Activity", "setting": "[2]; Tavocept 1.1 mM", "result": 94.4, "unit": "%"}, {"measurement": "Slope Abs/min", "setting": "[2]; Tavocept 3.3 mM", "result": "0.0295 Abs/min and 0.0242 Abs/min and 0.0284 Abs/min"}, {"measurement": "Slope Mean", "setting": "[2]; Tavocept 3.3 mM", "result": 0.0274, "unit": "Abs/min"}, {"measurement": "Relative Activity", "setting": "[2]; Tavocept 3.3 mM", "result": 61, "unit": "%"}, {"measurement": "Slope Abs/min", "setting": "[2]; Tavocept 10 mM", "result": "0.0155 Abs/min and 0.0158 Abs/min and 0.0139 Abs/min"}, {"measurement": "Slope Mean", "setting": "[2]; Tavocept 10 mM", "result": 0.0151, "unit": "Abs/min"}, {"measurement": "Relative Activity", "setting": "[2]; Tavocept 10 mM", "result": 33.6, "unit": "%"}, {"measurement": "increase in GST inhibition", "setting": "[2]; Tavocept raised from 1.1 mM to 3.3 mM", "result": "~6", "unit": "times"}, {"measurement": "NADPH Oxidation, Thioredoxin Reductase only", "setting": "[3]; Disulfide 0.5 mM, minimum of triplicate assays", "result": "0.3 ± 0.01", "unit": "nmol/min/mL"}, {"measurement": "NADPH oxidation by TXR in the absence of TX", "setting": "[3]; FIG. 17", "result": "indistinguishable from background"}, {"measurement": "substrate for thioredoxin reductase alone", "setting": "[3]; result in words", "result": "not thioredoxin reductase alone; also recorded: not for TXR"}]}]}
